Measurements: a melting point compilation (Tetko et al.; mined from patent text by program, amines drawn as free bases though some values may be those of a salt)

| SMILES | melting point [°C] |
| --- | --- |
| CCNC(=O)c1c[nH]c2ncc(-c3nn(C)c4cc(Cl)ccc34)nc12 | 373 to 377 |
| COc1cnc(N2CCN(c3ccc(-n4c(C)nn(CC(=O)c5ccc(Cl)cc5)c4=O)cc3)CC2)nc1 | 220 |
| CCOC(=O)c1cc2c(C)c(C(=O)OCC)sc2[nH]1 | 139 |
| Cc1c(OCC(F)(F)F)ccnc1CSc1nc2cc(OC(F)F)ccc2n1N | 179 to 180 |
| NC(=O)c1c(C(=O)O)cnn1-c1ccc(Cl)cc1 | 249 to 250 |
| NS(=O)(=O)c1ccc(C2=C(c3ccc(F)cc3)CCC2)cc1 | 173 to 174 |
| N=C(NO)c1ccc2cc(O)c(O)cc2c1 | 238 to 243 |
| C=C[Si](C)(c1ccccc1)c1cccc(Cl)c1C(=O)NCC (configuration not stated) | 85 to 87 |
| CC(=O)NC1Cc2ccc(NC(=O)c3ccccc3-c3ccc(F)cc3)cc2C1 (configuration not stated) | 218 to 220 |
| OC(Cn1cncn1)c1ccc(-c2ccc(Cl)cc2)cc1 (configuration not stated) | 199 |
| C=CCc1c(O)ccc2ncccc12 | 162 to 164 |
| Cc1cc2c(-c3ccccc3)c(NC(=O)NCc3ccccc3N)n(C)c(=O)c2cc1C | 218 |
| c1ccc(-c2ccc(-c3nc(COc4ccc(CCCn5ccnc5)cc4)co3)s2)cc1 | 128 to 129 |
| C[C@@H](Oc1cc(-c2cnn(C3CCNCC3)c2)cnc1N)c1c(Cl)ccc(F)c1Cl | 194 |
| FS(F)(F)(F)(F)c1ccc(/C=C/c2nc(COc3ccc(-c4nc(Cn5ccnn5)co4)cc3)co2)cc1 | 172 to 174 |
| COc1ccc2ccc(C(O)C(F)(F)F)cc2c1 (configuration not stated) | 85 to 87 |
| CCOC(=O)C=Cc1cc(C(C)=O)ccc1OC | 90 |
| CNc1nc(C)c(C(=O)c2ccc(Cl)c([N+](=O)[O-])c2)s1 | 220 to 232 |
| O=C(c1ccccc1)c1cc(Cl)cc2c1OCC2C(=O)O (configuration not stated) | 155 to 157 |
| COc1ncc(C(=O)Nc2c(F)cncc2F)cc1OC1CCCC1 | 210 to 211 |
| COc1cc(CC(=O)O)ccc1CNC(=O)C1Cc2ccccc2N1S(=O)(=O)c1ccc(-c2cccc(C(F)(F)F)c2)cc1 (configuration not stated) | 99 to 105 |
| CCC(CC)(COc1nn2ccnc2cc1C)CS(N)(=O)=O | 210 to 211 |
| O=C(Oc1ccccc1)N1CCC(c2noc3cccc(F)c23)CC1 | 108 to 110 |
| C#Cc1ccnc(-c2ccc(-c3ccccc3C#C)c([N+](=O)[O-])c2)c1 | 144 to 146 |

| SMILES | melting point [°C] |
| --- | --- |
| Cn1nc(CCc2cc(=O)[nH]c(N)n2)c2ccc(C(=O)NC[C@H](NS(=O)(=O)c3cccc4cnccc34)C(=O)O)cc21 | 122 to 125 |
| COc1cc(OC)c2c(c1OC)CCC(C(=O)Cc1cccc(F)c1)C2C#N (configuration not stated) | 58 to 62 |
| CCc1ccc(Nc2ncc(Cc3ccc(OC)nc3)c3ncccc23)cc1Br | 142 to 146 |
| ClCc1csc(N2CCOCC2)n1 | 87 to 88 |
| CCN(CC)CCOC1CCC2C3CCc4cc(OC)ccc4C3CCC12CC (configuration not stated) | 66 to 67 |
| CC(C)=CCOc1ccc2c(C)cc(=O)oc2c1C(=O)C=Cc1cccnc1 | 156 to 157 |
| Brc1cn2ccsc2n1 | 96 to 98 |
| Nc1ccccc1Nc1ccccc1F | 82 to 83 |
| CCc1oc2ccccc2c1C(=O)N(C)Cc1ccc2c(Br)c(O)ccc2c1 | 176 to 178 |
| CC(=O)Nc1nc2c(s1)-c1nc(-c3ccccc3Cl)ncc1C2 | 257 |
| CCCc1[nH]c2cc(C(=O)OC)ccc2c1C(=O)C1CCC1 | 159 to 160 |
| Nc1nc(COc2ccccc2)nc2nccnc12 | 202 to 204 |
| O=C1NCCc2ccc(OCCCCN3CCN(c4cccc5c4CCC5)CC3)nc2N1 | 70 to 72 |
| Cn1ncc2cc3ncc(-c4ccc(Cl)s4)nc3cc21 | 225 to 227 |
| CC(C)(O)C1CCC(CNC(=O)c2cccnc2Oc2cccc(C#N)c2)CC1 (configuration not stated) | 129 to 130 |
| COC(=O)Nc1nc2cc(F)c(OC(C)c3c(Cl)ccc(F)c3Cl)cc2[nH]1 (configuration not stated) | 245 to 250 |
| CCOC(=O)c1cnn2c1c(NC1CC1)nc1ccccc12 | 167 to 169 |
| Cc1ccc(NCCCCOc2ccc3ccccc3c2)cc1 | 98 |
| COc1cc2c3c(n(CCCNS(=O)(=O)c4ccccc4)c(=O)c2cc1OC)-c1ccccc1C3=O | 249 to 250 |
| CCOc1ccc(C2=NN(CCCCOc3ccc(C4=NNC(=O)CC4C)cc3)C(=O)C3CC=CCC23)cc1OCC (configuration not stated) | 73 to 78 |
| Oc1cc(F)cc(C2(O)CCOCC2)c1 | 158 to 160 |
| O=C1NC2(CCc3ccccc32)c2ccccc21 (configuration not stated) | 205 to 206 |
| Nc1nc(-c2cc(Cl)ccc2Cl)nc(N2CCC[C@H]2C(=O)O)n1 | 144 to 147 |
| O=C(O)C(=O)c1cccc(OCc2ccccc2Cl)c1OCc1ccccc1Cl | 116 to 118 |

Results, then the molecule that gave them:

| melting point [°C] | SMILES |
| --- | --- |
| 73 to 75 | COCOc1ccc(C=CC(C)=O)cc1OC |
| 206 to 207 | Cc1ccc(C(O)c2c(OCc3ccccc3)c(=O)ccn2CCO)cc1 (configuration not stated) |
| 222 to 224 | Nc1ncccc1-c1nc2ccc(-c3cccnc3)nc2n1-c1ccc(NC(=O)c2ccccc2)cc1 |
| 117 to 119 | CN1CCCC(c2ccccc2)c2[nH]c3ccccc3c2CC1 (configuration not stated) |
| 177 | O=C(Nc1ccccc1S(=O)(=O)F)NC1CCCCC1 |
| 290 | Cc1cc(-c2ccc(C(F)(F)F)cc2)cn2c(-c3nc(-c4ccc(S(N)(=O)=O)cc4)no3)cnc12 |
| 192 to 193 | CCOc1ccc(-c2nc(-c3cccc(C(=O)O)c3)cs2)cc1OCC |
| 158 to 159 | COc1ccc(CSc2nc3cnccc3[nH]2)cc1C |
| 47 to 48 | c1ccc2c(c1)CC[C@H]1O[C@@H]21 |
| 167 to 168 | CCC(=O)/C=C/c1cn(-c2ccccc2)nc1OCc1ccc(OCc2nc(-c3ccco3)oc2C)c(OC)c1 |
| 213 to 214 | CNc1nc(C(=O)N(C)Cc2cc(C(F)(F)F)cc(C(F)(F)F)c2)c(-c2ccccc2)c2ccccc12 |
| 80 to 81 | Cc1cccc(-c2nc(Cl)cc(Cl)n2)c1 |
| 119 to 123 | CNC(=O)N(N=C(C)C)C(=O)c1ccc(Cl)cc1 |
| 138 to 139 | Cc1c(-c2ccnc(Cl)n2)cccc1[N+](=O)[O-] |
| 73 to 74 | CC(NC(=O)CCl)(c1ccccc1)c1ccccc1 |
| 95 to 96 | ClCc1ccc(-c2ccccc2)nc1 |
| 195 to 205 | O=C(Nc1ccc(N2CCS(=O)(=O)CC2)c(C(F)(F)F)c1)c1cccc2cc(Oc3cc(NC(=O)C4CC4)ncn3)ccc12 |
| 148 to 149 | c1ccc(CN2CCN(c3onc4c3CCc3ccccc3-4)CC2)cc1 |
| 140 to 142 | COC1Cc2nc3cc(N)ccc3n2C1 (configuration not stated) |
| 151 to 152 | IC#CCn1c2ccccc2c2ccccc21 |
| 201 to 203 | O=C1C(=Cc2ccccc2)CS(=O)(=O)CC1=Cc1ccccc1 |
| 130 to 131 | Cc1cc(C)c2ncc([N+](=O)[O-])c(-c3ccccc3Cl)c2c1 |
| 78 to 79 | Cc1oc(-c2ccccc2)nc1COc1ccc(CCCCCO)cc1 |
| 144 | Cc1cc(N)c(NC(=O)OC(C)(C)C)cc1C(F)(F)F |
